“Also recorded” adds a separate entry of the source.
Tests used:
[1] = test system: wheat flour nucleotide pyrophosphatase (NPP); assay: In vitro NPP inhibition studies (NAD+ degradation by wheat flour extract); type: biochemical; conditions: for ability to inhibit NPP in wheat flour: ADP about 1-2 mM, phosphates tested at 10 g/l; for reactivation of the inhibited enzyme by divalent metal ions: addition of divalent ions (Mg2+, Mn2+; excess MgCl2, MnCl2, ZnCl2, CaCl2)
Procedure: As an example of nucleotide pyrophosphatase inhibition, pyrophosphate was tested.
To perform in vitro nucleotide pyrophosphatase (NPP) inhibition studies, a reaction mixture of 5 ml was made containing 2.5 ml of flour extract (see Example 12), 1.5 ml of NAD^+ or NADH solution and 1 ml of potential inhibitor. The coenzymes and inhibitors were dissolved in a 0.2 M acetate buffer at pH 5.5. The final coenzyme concentration was 0.5 mM, unless otherwise mentioned. The different phosphates ([…] (Na2H2P2O7), sodium metaphosphate ((NaPO3)n), pentasodium tripolyphosphate (Na5P3O10), tetrasodium pyrophosphate (Na4P2O7) and dicalcium pyrophosphate (CaH2P2O7)) were tested in a concentration of 10 g/l. For the reactivation experiments with metal ions and to test a synergetic effect of glycine with EDTA the reaction mixture was adapted: 500 μl of inhibitor was added together with 500 μl of cation or glycine instead of 1 ml inhibitor. For the reactivation experiments with metal ions, the chloride forms of the cations were used, i.e. MgCl2, MnCl2, ZnCl2 and CaCl2.
A flour extract was prepared based on the method described by Honold et al. (1966, Cereal Chemistry 43:517-528). To 5 g of flour, 25 ml of an aqueous 12.5% sucrose solution was added. The solution was homogenised with an UltraTurrax mixer (IKA Werke, Janke & Kunkel GmbH & CoKG, Staufen, Germany). This homogenised flour suspension was centrifuged during 5 minutes at 1000 rpm (77 g) (SS34 rotor, Sorvall RC 5B centrifuge). The supernatant was recovered and filtrated through Whatman No. 1 filter paper. The filtrate was used as crude flour extract. All steps were carried out between 0° C. and 5° C.

[2] = test system: nicotinamide coenzymes NAD+/NADH in dough systems; assay: Coenzyme (NAD+/NADH) concentrations in dough systems (mini doughs); set-up: species or system wheat; conditions: 0.3 g calcium pyrophosphate per 100 g flour; before and after 60 minutes dough resting at 25° C.
Procedure: The oxidised (NAD^+) and reduced (NADH) form of the nicotinamide coenzymes were extracted from doughs with an acid and alkaline extraction method respectively.
The coenzymes, NAD^+ and NADH, can be determined with an isocratic reversed phase HPLC method on a Varian Prostar HPLC system. Separation of the coenzymes NAD^+ and NADH was carried out on a Chromsep Microspher 3C18 column (3 μm particle size, 4.6×100 mm, Chrompack). The mobile phase was 96% 0.15 M citrate-sodium phosphate buffer (pH 6.8) containing 1 mM EDTA, and 4% methanol (30° C.). The flow rate was 0.5 ml/min and detection was accomplished by UV absorption at 260 nm (Varian Prostar UV 320).
All samples were filtrated (Sartorius Minisart RC15, 0.45 μm) and sample injection (20 μl) was accomplished with a Varian Prostar 410 autosampler. The nucleotide concentration was measured by the peak area of the chromatogram with calibration curves, which were prepared using a known amount of coenzymes.
Baking tests were performed with mini doughs (150 g).
The doughs were kneaded with a pin mixer during 4.5 minutes, after which they were incubated during 20 minutes at 25° C. The dough was sheeted and incubated again at 25° C. during 20 minutes, after which it was sheeted and incubated for 50 minutes at 36° C. and at a relative humidity of 80%. […] Bread volume after baking was determined by the rapeseed displacement method.

[3] = inhibitor at 4 mM, in vitro tests

For `O[C@H](CS)[C@H](O)CS` (racemic) [DTT, dithiothreitol], the “inhibition of the NPP” value [1, 3] was “inhibited the NPP at some extent”.

`Nc1ncnc2c1ncn2[C@@H]1O[C@H](COP(=O)(O)OP(=O)(O)O)[C@@H](O)[C@H]1O` [ADP] was tested, and the “inhibition of the NPP” value ([1]; ADP 1 mM) was “inhibit the NPP partially” and the “ability to inhibit NPP in wheat flour” value [1] was “able to inhibit”.

`O=P([O-])(O)OP(=O)([O-])O.[Ca+2]` [Ca-pyrophosphate, CaH2P2O7] was tested, and the “inhibition of NAD+ degradation by a wheat flour extract” value (“inhibition of NAD+ degradation” for short) ([1]; 50 to 100 mM Ca-pyrophosphate) was “completely inhibit”.

In the case of `O=C(O)CN(CCN(CC(=O)O)CC(=O)O)CC(=O)O` [EDTA], the “reactivation of the inhibited enzyme by divalent metal ions” value [1] is reported as “reactivated partially” and the “inhibition of the wheat flour NPP” value ([1]; from a concentration of 4 mM EDTA on, in vitro) is reported as “complete inhibition”.

For `N[C@@H](CS)C(=O)O` [L-cysteine], the “inhibition of the NPP” value [1, 3] was “inhibited the NPP at some extent”.

For `O=P(O)(O)OP(=O)(O)O` [pyrophosphate], the “inhibition of NAD+ degradation” value ([1]; 10 mM pyrophosphate) was “Partial inhibition”, the “inhibition of NAD+ degradation” value ([1]; 20 mM pyrophosphate) was “Partial inhibition” and the “reactivation of the inhibited enzyme by divalent metal ions” value [1] was “This is not the case; also recorded: could not reactivate the enzyme”. For the same compound, the “mode of inhibition of wheat flour nucleotide pyrophosphatase” value ([1]; suggested: no reactivation by metal ions, pyrophosphate split into phosphate by flour extract) was “competitive inhibitor” and the “coenzyme concentrations (NAD+ and NADH) in dough” value [2] was “higher coenzyme concentrations were observed”.

With `O=P(O)(O)OP(=O)(O)O` [sodium pyrophosphate, Na2H2P2O7] the “inhibition of the NPP enzyme” value ([1]; 100 mM sodium pyrophosphate) was “completely inhibited”.

With `O=P([O-])([O-])OP(=O)([O-])OP(=O)([O-])[O-].[Na+].[Na+].[Na+].[Na+].[Na+]` [tripolyphosphate, pentasodium tripolyphosphate (Na5P3O10)] the “ability to inhibit NPP in wheat flour” value [1] was “able to inhibit”.

sodium metaphosphate ((NaPO3)n) was tested, and the “ability to inhibit NPP in wheat flour” value [1] was “able to inhibit”.

Reference: patent publication US8187646B2, “Nucleotide pyrophosphatase inhibitor and coenzyme regenerating systems” (Puratos N.V., priority 2004, dated 2012)
